Experimental findings from patent publication US6001810A, “Methods for treating retroviral infection” (Eli Lilly and Company, priority 1990, dated 1999) are described below.

≈ marks a conversion by molar mass, not a printed value. Non-standard residues stand in square brackets, D forms with d. Residues, ends and D or L forms follow the SMILES beside them. *: point of attachment. Phe(4-NH2) = Nc1ccc(C[C@H](N)C(=O)O)cc1; Sta = CC(C)C[C@H](N)[C@@H](O)CC(=O)O; Isovaleryl = CC(C)CC(=O)* Bounds are passed on as bounds.

The target in one data set is T1, HIV-1 protease (Human immunodeficiency virus type 1 group M subtype B, UniProt P04585).
T1 construct: a gene encoding the mature HIV-1 protease of 99 amino acids; last 58 codons of bovine growth hormone, fused behind the first 144 amino acids of reverse transcriptase in the expressed precursor (C); made in house; host or cells: Escherichia coli K12 L507/pHP10D (NRRL B-18560), crude lysate
The experiment in a line: HIV-1 protease inhibition assay (gag precursor maturation, Western blot). The format is biochemical. The procedure:
A 100 μl control reaction was established containing 10 to 20 μl of crude protease, about 2 μl of the gag supernatant and final concentrations of 50 mM MES Buffer (pH 5.5), 1 mM DTT and 25 mM NaCl. Inhibition assays were performed by pre-incubating the crude protease with an inhibitory compound at room temperature for about 30 minutes before adding the gag supernatant to the reaction. Both the control and the experimental reactions were incubated from three to sixteen hours at 37° C. The reactions were then electrophoresed and blotted onto nitrocellulose filters. Monoclonal antibodies which recognize epitopes on p24 and p17 viral proteins were contacted with the filter then visualized using standard biotinylation or radionuclear techniques. Compounds which prevented the maturation of the gag polypeptide into mature viral proteins p24 and p17 were then ranked according to their HIV-1 protease inhibitory activity.
About 10 to 20 μl of the crude protease lysate was mixed with about 2 μl of the gag supernatant. The mixture was then brought to a total volume of 100 μl by the addition of distilled water, MES buffer (2-[N-Morpholino]ethanesulfonic acid) (pH 5.5 to a total concentration of 50 mM), DTT (dithiolthreitol) (to a total concentration of 1 mM) and NaCl (to a total concentration of 25 mM). This reaction mixture was mixed gently then incubated from 3 hours to overnight at 37° C.
Next, about 25 μl of the reaction was mixed with loading buffer and subjected to polyacrylamide gel electrophoresis on a 12.5% Laemmli gel under reducing conditions. The proteins were transferred onto a nitrocellulose filter using standard "Western Blot" electrophoresis at 500 mAmps for 35 minutes at room temperature. The filter was air-dried, then non-specific immunoreaction was blocked by washing the filter for 30 minutes at 4° C. in a solution of 3% non-fat dry milk powder in phosphate buffered saline (PBS).
Monoclonal antibodies against p17 and/or p24 (available from DuPont, Wilmington, Del.) were added to about 40 ml of the 3% milk/PBS solution to a final concentration of 2 μg/ml. […] The filter then was removed and washed 5 times with PBS, then the maturation of the gag gene was determined by reaction with I^125 -labeled protein A or by reaction with biotinylated anti-mouse IgG antibodies (Vecta Stain®). […]
Following the procedure, it is simple to determine the activity of the HIV-1 protease encoded on plasmid pHP10D and produced in E. coli cells. When the protease is fully active, the gag protein, encoded by plasmid pHGAG and produced in E. coli, is cleaved from the precursor gag form into mature p24 and p17 proteins, which are readily measured by their presence relative to the precursor protein. […]

For the next data set, the system named is MT-2 cells. It counts as cell-based. The procedure: (§1) Quantitative evaluation of the viral inhibition were performed on the T-cell lymphoblastoid cell lines MT-2 (Harada et al., 1985, Science 229:563-566) and CEM (Nara and Fischinger, 1988, Nature 332:469-470). The cells were infected with the HTLV-IIIB strain of HIV-1 from the supernatant fluid of infected human T-lymphocyte cell line H9 (Popovic, M. et al., 1984, Science 224:497-500). Each of these three cell lines are publicly available from the National Institutes of Health (NIH) AIDS Research and Reference Reagent Program. The H9/HTLC-IIIB cell line is available under catalogue number 231, while CEM cell line is available under catalogue number 117 and the MT-2 cell line is available under the catalogue number 237. MT-2 and CEM cells were grown in RPMI 1640 medium supplemented with 10% (v/v) fetal calf serum, 100 U/ml penicillin, 100 μg/ml streptomycin and 25 mM HEPEs buffer. H9 cells were grown in the same medium except 20% fetal calf serum was used. The peptides were diluted in the medium used for MT-2 and CEM cells. Cell cultures were maintained in disposable tissue culture labware at 37° C. in a humidified atmosphere of 5% CO2 in air.
(§2) The inhibitors were dissolved in DMSO at 40 mg/ml or sterile water at 2 mg/ml, then dilutions were made in medium. The dilutions were added to micro-titer plates in 100 μl/well aliquots so that the high drug concentration for each screen was 100 μg/ml after the addition of cells to the well.
(§3) Susceptible MT-2 and CEM cells were grown and the cell population determined by a trypan blue viable cell count. The desired total number of cells were placed in a sterile, disposable 50 ml conical centrifuge tube and virus was added to give an MOI (Multiplicity of Infection) of 0.03 TCID50 /cell (Tissue Culture Infectious Dose) on MT-2 cells and approximately 0.12 TCID50 /cell on CEM cells. Fresh medium was added to adjust the cell density to 1×10^5 cells/ml, then the virus-cell suspension was incubated at 37° C. for 1 to 2 hours until plating. Uninfected controls cell were prepared in the same manner but without the addition of virus. Infected and uninfected cells were added to plates in 100 μl/well aliquots to give a starting cell number of 1×10^4 cells/well. The plates were incubated for seven days in a humidified atmosphere of 5% CO2 in air.
Reagents for colorimetric evaluation of cell viability were prepared by mixing the tetrazolium reagent, XTT, and phenazine methosulfate (PMS) to final concentrations of 200 μg/ml and 0.02 mM, respectively. […] The plates were read with the sealers in place in a Vmax Plate Reader® at 450 nm and 650 nm. The cytopathic effect (CPE) and percentage of cell viability were then calculated.

Another data set concerns CEM cells. It counts as cell-based. The procedure:
as §1, §2, §3
Reagents for colorimetric evaluation of cell viability were prepared by mixing the tetrazolium reagent, XTT, and phenazine methosulfate (PMS) to final concentrations of 200 μg/ml and 0.02 mM, respectively. Fifty microliters of the XTT-PMS solution was added to each well of the microtiter plates, then the plates were incubated in the CO2 incubator for another four hours. The lids were removed from the plates and replaced with adhesive plate sealers. The plates were read with the sealers in place in a Vmax Plate Reader® at 450 nm and 650 nm. The cytopathic effect (CPE) and percentage of cell viability were then calculated.
The activity and cytotoxicity of several other peptides were also assayed in CEM cells using the same procedure as described above. These assays also included toxicity and activity levels of both 25% and 50%.

In a further data set the test system is MLV. Kind of data set: MLV XC Plaque Reduction Assay - Virus Yield. It counts as cell-based, Murine Leukemia Virus. The procedure:
(§4) About 3 to 5×10^3 SC-1 cells (available from the American Type Culture Collection, Rockville, Md. under the accession number ATCC CRL-1404) per well of a 96-well microtiter plate were seeded in minimal essential medium supplemented with 5% fetal bovine serum, penicillin (150 U/ml), Streptomycin (150 μg/ml) and polybrene (2 μg/ml), then infected with Mo-MuLV (Multiplicity of Infection=10 PFU/cell) the next day. The virus was allowed to adsorb to the cells for 1 hour, then medium containing serial dilutions of P-7, P-9 or medium alone was added to the cells. Pepstatin A ([…]-Val-Val-Statine-Ala-Statine) and AZT (3'-Azido-3'-deoxythymidine) were also added as controls. After incubation for 5 days (when cells were confluent) the SC-1 cells were UV irradiated for 10 seconds and 5 to 8×10^4 XC cells (ATCC CCL-165) per well were added. Generally, about two additional days of incubation were required to obtain full virus-induced cytopathic effect.
The assay described above was also preferred to determine the virus yield. In this experiment, the supernatents were removed from the SC-1 cells four days after infection and tested for MLV titers, using the XC-plaque assay as previously described.
In general terms: Plaques are areas of infected cells; plaque reduction assays count them against a control.

A further data set deals with Mo-MuLV. The experiment in a line: Moloney Murine Leukemia Virus Assay, CPE inhibition in SC-1/XC cells. It counts as cell-based. Further details: key: 4+(>90%); 3+(>60%); 2+(>40%); 1+(>20%); -(Negative). Here is the method: as §4

As for `CC(=O)N[C@H](C(=O)N[C@@H](CC(C)C)[C@@H](O)CC(=O)N[C@@H](CC(C)C)C(=O)N[C@@H](Cc1ccccc1)C(N)=O)C(C)C` [Ac-Val-Statine-Leu-Phe--NH2] (Ac-V[Sta]LF-NH2), the “Inhibitory activity against the HIV protease (in words)” value on HIV-1 protease is “inactive”.
Regarding `CC(C)C[C@H](NC(=O)C[C@H](O)[C@H](CC(C)C)NC(=O)[C@@H](NC(=O)[C@H](Cc1ccccc1)NC(=O)[C@@H]1CCCN1C(=O)[C@H](Cc1ccc(N)cc1)NC(=O)[C@@H]1CCCN1)C(C)C)C(=O)N[C@@H](Cc1ccccc1)C(=O)N[C@@H](Cc1ccc(N)cc1)C(N)=O` [P-1, H-Pro paF Pro Phe Val Statine Leu Phe paF NH2] (H-P[Phe(4-NH2)]PFV[Sta]LF[Phe(4-NH2)]-NH2), the “MTC50 (minimum cytotoxic drug concentration that reduces cell viability to 50%)” value with MT-2 cells and in the data set with CEM cells was > 100 µg/mL each time.
`CC(=O)N[C@@H](Cc1ccc(O)cc1)C(=O)N1CCC[C@H]1C(=O)N[C@@H](Cc1ccccc1)C(=O)N[C@H](C(=O)N[C@@H](CC(C)C)[C@@H](O)CC(=O)N[C@@H](CC(C)C)C(=O)N[C@@H](Cc1ccccc1)C(N)=O)C(C)C` [P-5, Ac Tyr Pro Phe Val Statine Leu Phe NH2] (Ac-YPFV[Sta]LF-NH2): in the data set on CEM cells, the “IC25 (Table V)” value is > 100 µg/mL and the “TC50 (concentration that reduced cell viability by 50%)” value was > 100 µg/mL.
As to `CC(=O)N[C@@H](Cc1c[nH]c2ccccc12)C(=O)N1CCC[C@H]1C(=O)N[C@@H](Cc1ccccc1)C(=O)N[C@H](C(=O)N[C@@H](CC(C)C)[C@@H](O)CC(=O)N[C@@H](CC(C)C)C(=O)N[C@@H](Cc1ccccc1)C(N)=O)C(C)C` [P-8, Ac Trp Pro Phe Val Statine Leu Phe NH2] (Ac-WPFV[Sta]LF-NH2), in the data set on CEM cells, the “IC25 (Table V)” value came out at 49 µg/mL (≈ 48.7 µM) and the “TC50 (concentration that reduced cell viability by 50%)” value stood at 66 µg/mL (≈ 65.6 µM).
The like results for `COc1ccc(C[C@H](NC(C)=O)C(=O)N2CCC[C@H]2C(=O)N[C@@H](Cc2ccccc2)C(=O)N[C@H](C(=O)N[C@@H](CC(C)C)[C@@H](O)CC(=O)N[C@@H](CC(C)C)C(=O)N[C@@H](Cc2ccccc2)C(N)=O)C(C)C)cc1` [P-9, Ac YOM Pro Phe Val Statine Leu Phe NH2] (Ac-Y(Me)PFV[Sta]LF-NH2) were, in that order, > 100 µg/mL and > 100 µg/mL.
On the same counts, the results for `CC(=O)N[C@@H](Cc1ccccc1)C(=O)N1CCC[C@H]1C(=O)N[C@@H](Cc1ccccc1)C(=O)N[C@H](C(=O)N[C@@H](CC(C)C)[C@@H](O)CC(=O)N[C@@H](CC(C)C)C(=O)N[C@@H](Cc1ccccc1)C(N)=O)C(C)C` [P-10, Ac Phe Pro Phe Val Statine Leu Phe NH2] (Ac-FPFV[Sta]LF-NH2) are 49 µg/mL (≈ 50.7 µM) and 55 µg/mL (≈ 56.9 µM).
As to `CC(C)CC(=O)N[C@H](C(=O)N[C@H](C(=O)N[C@@H](CC(C)C)[C@@H](O)CC(=O)N[C@@H](C)C(=O)N[C@@H](CC(C)C)[C@@H](O)CC(=O)O)C(C)C)C(C)C` [Pepstatin A, Isovaline-Val-Val-Statine-Ala-Statine] (Isovaleryl-VV[Sta]A[Sta]-OH), the “% Inhibition (virus yield)” value in the data set on MLV (25 μg/ml) is recorded as 52%; in the data set on MLV (50 μg/ml) it was 94%. The Yield is reported as 9.0 × 10^4 PFU/ML in the data set with MLV (25 μg/ml) and 1.2 × 10^4 PFU/ML in the data set with MLV (50 μg/ml, supernatants four days after infection). The CPE inhibition score result with Mo-MuLV (1.56 μg/ml), in the data set with Mo-MuLV (3.12 μg/ml), with Mo-MuLV (6.25 μg/ml), with Mo-MuLV (12.5 μg/ml), in the data set on Mo-MuLV (25 μg/ml) and in the data set with Mo-MuLV (50 μg/ml) was “-” each time.
Regarding “H-Pro His Pro Phe His AVA Ile Phe NH2 [P-25]”, the “Relative Inhibition of HIV-1 Protease Activity (10^-4 M)” value at HIV-1 protease (peptide concentration added 10^-4 M) is recorded as “-”. The “Relative Inhibition of HIV-1 Protease Activity (10^-5 M)” value on HIV-1 protease (peptide concentration added 10^-5 M) is given as “-”. Further, at HIV-1 protease (peptide concentration added 10^-6 M), the “Relative Inhibition of HIV-1 Protease Activity (10^-6 M)” value is on record as “-”.
